Results from the NIST ThermoML archive (doi:10.1021/je050389b).

Assay: xn = mol fraction of the nth substance listed
Settings: Liquid; for viscosity: 100.5 kPa; for mass density: 101 kPa

CCCC(=O)OCCC(C)C [3-methylbutyl butanoate] + CCO
Settings	mass density, 288.15 K [kg/m3]	mass density, 298.15 K [kg/m3]	mass density, 308.15 K [kg/m3]	mass density, 318.15 K [kg/m3]	viscosity, 288.15 K [mPa·s]	viscosity, 298.15 K [mPa·s]	viscosity, 308.15 K [mPa·s]	viscosity, 318.15 K [mPa·s]
x1 = 0.05	804.06	795.35	786.52	777.54	1.27	1.057	0.887	0.744
x1 = 0.1	812.38	803.57	794.63	785.54	1.231	1.025	0.858	0.723
x1 = 0.15	819.51	810.61	801.58	792.4	1.201	1.004	0.844	0.715
x1 = 0.2	825.58	816.61	807.52	798.28	1.181	0.993	0.838	0.711
x1 = 0.25	830.83	821.8	812.66	803.38	1.171	0.985	0.834	0.71
x1 = 0.3	835.41	826.34	817.17	807.86	1.167	0.98	0.832	0.71
x1 = 0.35	839.37	830.31	821.11	811.78	1.168	0.98	0.833	0.714
x1 = 0.4	842.96	833.85	824.64	815.3	1.17	0.984	0.835	0.717
x1 = 0.45	846.14	837.02	827.79	818.44	1.176	0.989	0.84	0.723
x1 = 0.5	849.03	839.9	830.66	821.32	1.183	0.994	0.846	0.729
x1 = 0.55	851.61	842.46	833.24	823.9	1.191	1.001	0.853	0.735
x1 = 0.6	854.01	844.86	835.64	826.33	1.202	1.01	0.862	0.743
x1 = 0.65	856.19	847.05	837.84	828.54	1.213	1.021	0.872	0.751
x1 = 0.7	858.18	849.04	839.85	830.57	1.224	1.031	0.882	0.76
x1 = 0.75	860.04	850.92	841.74	832.49	1.237	1.043	0.891	0.77
x1 = 0.8	861.76	852.65	843.5	834.28	1.253	1.056	0.903	0.781
x1 = 0.85	863.35	854.28	845.15	835.96	1.268	1.071	0.915	0.792
x1 = 0.9	864.86	855.81	846.71	837.56	1.284	1.086	0.929	0.806
x1 = 0.95	866.3	857.28	848.22	839.12	1.302	1.099	0.941	0.817
x1 = 1	867.72	858.69	849.62	840.55	1.317	1.111	0.952	0.827
